Reference: patent publication US11677091B2, “Use of quaternary ammonium salt-type anthraquinone-based active material and salt cavern organic aqueous redox flow battery” (CHINA SALT JINTAN CO., LTD., priority 2020, dated 2023)

Test: Electrochemical characterization of the active material (rotating disk electrode, diffusion coefficient, charge transfer rate constant)
Format: physicochemical
Conditions: on a graphite felt electrode
Description: FIG. 2 to FIG. 9 show the characterization of electrochemical performances of the prepared active material.

## C[N+](C)(C)CCCOc1cccc2c1C(=O)c1c(OCCC[N+](C)(C)C)cccc1C2=O [Embodiment 1]
  charge transfer rate constant: 0.00302 cm/s
  diffusion coefficient: 3.94×10^−6 cm^2/s
